The results in this text go back to US8426345B2, “Method of drug design” (Alchemia Limited, priority 2005, dated 2013).

Structures are written as SMILES.

The target in the assay is T1, Human SST5 somatostatin receptor (Homo sapiens, UniProt P35346).
T1 construct: expressed in transfected cells; host or cells: HEK-293 EBNA cells (membranes)
The assay can be described thus: Filter plate radio-ligand binding assay for SST5 receptor ([125I]SST-14 displacement). The note with it: 2P library; for % SST5 radio-ligand binding displaced at conc 50: compound conc 50 μM; for % SST5 radio-ligand binding displaced at conc 250: compound conc 250 μM; for % SST5 radio-ligand binding displaced at conc 500: compound conc 500 μM.

T1 sequence (P35346 whole entry): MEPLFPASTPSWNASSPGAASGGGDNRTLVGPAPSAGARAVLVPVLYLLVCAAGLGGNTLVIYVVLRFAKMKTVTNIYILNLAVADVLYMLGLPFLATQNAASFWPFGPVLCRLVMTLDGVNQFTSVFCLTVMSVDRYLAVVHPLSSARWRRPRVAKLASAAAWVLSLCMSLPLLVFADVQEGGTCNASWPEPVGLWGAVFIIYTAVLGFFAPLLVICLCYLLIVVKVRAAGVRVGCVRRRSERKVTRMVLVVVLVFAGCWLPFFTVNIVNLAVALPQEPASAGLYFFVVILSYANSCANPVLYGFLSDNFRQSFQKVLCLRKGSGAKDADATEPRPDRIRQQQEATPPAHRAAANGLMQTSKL

`COC[C@H]1O[C@@H](SC)[C@H](NC(=O)CCN)[C@@H](OCc2ccc(Cl)cc2)[C@@H]1O` [Compound 17]: the “% SST5 radio-ligand binding displaced at conc 50” value was “− (% SST5 radio-ligand binding displaced at cone (μM) −<40%)”, the “% SST5 radio-ligand binding displaced at conc 250” value is given as “− (% SST5 radio-ligand binding displaced at cone (μM) −<40%)” and the “% SST5 radio-ligand binding displaced at conc 500” value is given as “− (% SST5 radio-ligand binding displaced at cone (μM) −<40%)”.
As for `COC[C@H]1O[C@@H](SC)[C@H](NC(=O)CCN)[C@@H](OCc2ccc3ccccc3c2)[C@@H]1O` [Compound 18], the “% SST5 radio-ligand binding displaced at conc 50” value is recorded as “− (% SST5 radio-ligand binding displaced at cone (μM) −<40%)”, the “% SST5 radio-ligand binding displaced at conc 250” value is reported as “− (% SST5 radio-ligand binding displaced at cone (μM) −<40%)” and the “% SST5 radio-ligand binding displaced at conc 500” value is recorded as “− (% SST5 radio-ligand binding displaced at cone (μM) −<40%)”.
With `COC[C@H]1O[C@H](OCc2ccc(Cl)cc2)[C@H](NC(=O)CCN)[C@@H](OC)[C@@H]1O` [Compound 19], the “% SST5 radio-ligand binding displaced at conc 50” value is recorded as “− (% SST5 radio-ligand binding displaced at cone (μM) −<40%)”, the “% SST5 radio-ligand binding displaced at conc 250” value was “− (% SST5 radio-ligand binding displaced at cone (μM) −<40%)” and the “% SST5 radio-ligand binding displaced at conc 500” value is listed as “++ (% SST5 radio-ligand binding displaced at conc (μM) >60%)”.
On to `COC[C@H]1O[C@@H](OCc2ccc(Cl)cc2)[C@H](NC(=O)CCN)[C@@H](OC)[C@@H]1O` [Compound 20], for which the “% SST5 radio-ligand binding displaced at conc 50” value is recorded as “− (% SST5 radio-ligand binding displaced at cone (μM) −<40%)”, the “% SST5 radio-ligand binding displaced at conc 250” value was “− (% SST5 radio-ligand binding displaced at cone (μM) −<40%)” and the “% SST5 radio-ligand binding displaced at conc 500” value is “+ (% SST5 radio-ligand binding displaced at cone (μM) 60>+>40%)”.
`COC[C@H]1O[C@@H](OCc2ccc3ccccc3c2)[C@H](NC(=O)CCN)[C@@H](OC)[C@@H]1O` [Compound 21]: the “% SST5 radio-ligand binding displaced at conc 50” value is listed as “− (% SST5 radio-ligand binding displaced at cone (μM) −<40%)”, the “% SST5 radio-ligand binding displaced at conc 250” value was “+ (% SST5 radio-ligand binding displaced at cone (μM) 60>+>40%)” and the “% SST5 radio-ligand binding displaced at conc 500” value is on record as “++ (% SST5 radio-ligand binding displaced at conc (μM) >60%)”.
For `CO[C@H]1[C@H](O)[C@@H](COCc2ccc(Cl)cc2)O[C@@H](SC)[C@@H]1NC(=O)CCCN` [Compound 22], the “% SST5 radio-ligand binding displaced at conc 50” value is listed as “− (% SST5 radio-ligand binding displaced at cone (μM) −<40%)”, the “% SST5 radio-ligand binding displaced at conc 250” value is “− (% SST5 radio-ligand binding displaced at cone (μM) −<40%)” and the “% SST5 radio-ligand binding displaced at conc 500” value is listed as “− (% SST5 radio-ligand binding displaced at cone (μM) −<40%)”.
As to `CO[C@H]1[C@H](O)[C@@H](COCc2ccc3ccccc3c2)O[C@@H](SC)[C@@H]1NC(=O)CCCN` [Compound 23], the “% SST5 radio-ligand binding displaced at conc 50” value was “− (% SST5 radio-ligand binding displaced at cone (μM) −<40%)”, the “% SST5 radio-ligand binding displaced at conc 250” value is given as “− (% SST5 radio-ligand binding displaced at cone (μM) −<40%)” and the “% SST5 radio-ligand binding displaced at conc 500” value is “+ (% SST5 radio-ligand binding displaced at cone (μM) 60>+>40%)”.
As to `COC[C@H]1O[C@@H](SC)[C@H](NC(=O)CCCN)[C@@H](OCc2ccc(Cl)cc2)[C@@H]1O` [Compound 24], the “% SST5 radio-ligand binding displaced at conc 50” value is on record as “− (% SST5 radio-ligand binding displaced at cone (μM) −<40%)”, the “% SST5 radio-ligand binding displaced at conc 250” value is listed as “− (% SST5 radio-ligand binding displaced at cone (μM) −<40%)” and the “% SST5 radio-ligand binding displaced at conc 500” value is on record as “− (% SST5 radio-ligand binding displaced at cone (μM) −<40%)”.
As for `COC[C@H]1O[C@@H](SC)[C@H](NC(=O)CCCN)[C@@H](OCc2ccc3ccccc3c2)[C@@H]1O` [Compound 25], the “% SST5 radio-ligand binding displaced at conc 50” value is listed as “− (% SST5 radio-ligand binding displaced at cone (μM) −<40%)”, the “% SST5 radio-ligand binding displaced at conc 250” value is “− (% SST5 radio-ligand binding displaced at cone (μM) −<40%)” and the “% SST5 radio-ligand binding displaced at conc 500” value is given as “+ (% SST5 radio-ligand binding displaced at cone (μM) 60>+>40%)”.
Turning to `COC[C@H]1O[C@@H](OCc2ccc(Cl)cc2)[C@H](NC(=O)CCCN)[C@@H](OC)[C@@H]1O` [Compound 27], the “% SST5 radio-ligand binding displaced at conc 50” value is listed as “− (% SST5 radio-ligand binding displaced at cone (μM) −<40%)”, the “% SST5 radio-ligand binding displaced at conc 250” value is recorded as “− (% SST5 radio-ligand binding displaced at cone (μM) −<40%)” and the “% SST5 radio-ligand binding displaced at conc 500” value is reported as “− (% SST5 radio-ligand binding displaced at cone (μM) −<40%)”.
In the case of `COC[C@H]1O[C@@H](OCc2ccc3ccccc3c2)[C@H](NC(=O)CCCN)[C@@H](OC)[C@@H]1O` [Compound 28], the “% SST5 radio-ligand binding displaced at conc 50” value was “− (% SST5 radio-ligand binding displaced at cone (μM) −<40%)”, the “% SST5 radio-ligand binding displaced at conc 250” value is on record as “− (% SST5 radio-ligand binding displaced at cone (μM) −<40%)” and the “% SST5 radio-ligand binding displaced at conc 500” value was “++ (% SST5 radio-ligand binding displaced at conc (μM) >60%)”.
With `COC1C(O)C(COCc2ccc(Cl)cc2)OC(SC)C1NC(=O)CN` (stereo not drawn) [Compound 29], the “% SST5 radio-ligand binding displaced at conc 50” value was “− (% SST5 radio-ligand binding displaced at cone (μM) −<40%)”, the “% SST5 radio-ligand binding displaced at conc 250” value was “− (% SST5 radio-ligand binding displaced at cone (μM) −<40%)” and the “% SST5 radio-ligand binding displaced at conc 500” value is “− (% SST5 radio-ligand binding displaced at cone (μM) −<40%)”.
Take `COC1C(O)C(COCc2ccc3ccccc3c2)OC(SC)C1NC(=O)CN` (stereo not drawn) [Compound 30]: the “% SST5 radio-ligand binding displaced at conc 50” value was “− (% SST5 radio-ligand binding displaced at cone (μM) −<40%)”, the “% SST5 radio-ligand binding displaced at conc 250” value is “− (% SST5 radio-ligand binding displaced at cone (μM) −<40%)” and the “% SST5 radio-ligand binding displaced at conc 500” value is on record as “+ (% SST5 radio-ligand binding displaced at cone (μM) 60>+>40%)”.
Take `COCC1OC(SC)C(NC(=O)CN)C(OCc2ccc(Cl)cc2)C1O` (stereo not drawn) [Compound 31]: the “% SST5 radio-ligand binding displaced at conc 50” value was “− (% SST5 radio-ligand binding displaced at cone (μM) −<40%)”, the “% SST5 radio-ligand binding displaced at conc 250” value was “− (% SST5 radio-ligand binding displaced at cone (μM) −<40%)” and the “% SST5 radio-ligand binding displaced at conc 500” value is reported as “+ (% SST5 radio-ligand binding displaced at cone (μM) 60>+>40%)”.
Take `COCC1OC(SC)C(NC(=O)CN)C(OCc2ccc3ccccc3c2)C1O` (stereo not drawn) [Compound 32]: the “% SST5 radio-ligand binding displaced at conc 50” value was “− (% SST5 radio-ligand binding displaced at cone (μM) −<40%)”, the “% SST5 radio-ligand binding displaced at conc 250” value is recorded as “− (% SST5 radio-ligand binding displaced at cone (μM) −<40%)” and the “% SST5 radio-ligand binding displaced at conc 500” value was “− (% SST5 radio-ligand binding displaced at cone (μM) −<40%)”.
`COC[C@H]1O[C@H](OCc2ccc(Cl)cc2)[C@H](NC(=O)CN)[C@H](OC)[C@@H]1O` [Compound 33]: the “% SST5 radio-ligand binding displaced at conc 50” value is “− (% SST5 radio-ligand binding displaced at cone (μM) −<40%)”, the “% SST5 radio-ligand binding displaced at conc 250” value is listed as “− (% SST5 radio-ligand binding displaced at cone (μM) −<40%)” and the “% SST5 radio-ligand binding displaced at conc 500” value was “− (% SST5 radio-ligand binding displaced at cone (μM) −<40%)”.
As to `COC[C@H]1O[C@H](OCc2ccc3ccccc3c2)[C@H](NC(=O)CN)[C@H](OC)[C@@H]1O` [Compound 34], the “% SST5 radio-ligand binding displaced at conc 50” value was “− (% SST5 radio-ligand binding displaced at cone (μM) −<40%)”, the “% SST5 radio-ligand binding displaced at conc 250” value is “− (% SST5 radio-ligand binding displaced at cone (μM) −<40%)” and the “% SST5 radio-ligand binding displaced at conc 500” value is reported as “− (% SST5 radio-ligand binding displaced at cone (μM) −<40%)”.
As for `COC[C@H]1O[C@@H](OCc2ccc(Cl)cc2)[C@H](NC(=O)CN)[C@H](OC)[C@@H]1O` [Compound 35], the “% SST5 radio-ligand binding displaced at conc 50” value is on record as “− (% SST5 radio-ligand binding displaced at cone (μM) −<40%)”, the “% SST5 radio-ligand binding displaced at conc 250” value is on record as “− (% SST5 radio-ligand binding displaced at cone (μM) −<40%)” and the “% SST5 radio-ligand binding displaced at conc 500” value was “− (% SST5 radio-ligand binding displaced at cone (μM) −<40%)”.
As to `COC[C@H]1O[C@@H](OCc2ccc3ccccc3c2)[C@H](NC(=O)CN)[C@H](OC)[C@@H]1O` [Compound 36], the “% SST5 radio-ligand binding displaced at conc 50” value is recorded as “− (% SST5 radio-ligand binding displaced at cone (μM) −<40%)”, the “% SST5 radio-ligand binding displaced at conc 250” value is on record as “− (% SST5 radio-ligand binding displaced at cone (μM) −<40%)” and the “% SST5 radio-ligand binding displaced at conc 500” value was “+ (% SST5 radio-ligand binding displaced at cone (μM) 60>+>40%)”.
Regarding `COC[C@H]1O[C@@H](SC)[C@H](NC(=O)CCN)[C@H](OCc2ccc(Cl)cc2)[C@@H]1O` [Compound 37], the “% SST5 radio-ligand binding displaced at conc 50” value was “− (% SST5 radio-ligand binding displaced at cone (μM) −<40%)”, the “% SST5 radio-ligand binding displaced at conc 250” value is given as “− (% SST5 radio-ligand binding displaced at cone (μM) −<40%)” and the “% SST5 radio-ligand binding displaced at conc 500” value is “− (% SST5 radio-ligand binding displaced at cone (μM) −<40%)”.
On to `COC[C@H]1O[C@H](OCc2ccc(Cl)cc2)[C@H](NC(=O)CCN)[C@H](OC)[C@@H]1O` [Compound 38], for which the “% SST5 radio-ligand binding displaced at conc 50” value was “− (% SST5 radio-ligand binding displaced at cone (μM) −<40%)”, the “% SST5 radio-ligand binding displaced at conc 250” value is reported as “+ (% SST5 radio-ligand binding displaced at cone (μM) 60>+>40%)” and the “% SST5 radio-ligand binding displaced at conc 500” value is listed as “++ (% SST5 radio-ligand binding displaced at conc (μM) >60%)”.
For `COC[C@H]1O[C@@H](OCc2ccc(Cl)cc2)[C@H](NC(=O)CCN)[C@H](OC)[C@@H]1O` [Compound 39], in that order: “− (% SST5 radio-ligand binding displaced at cone (μM) −<40%)”, “− (% SST5 radio-ligand binding displaced at cone (μM) −<40%)” and “++ (% SST5 radio-ligand binding displaced at conc (μM) >60%)”.
For `COC[C@H]1O[C@@H](OCc2ccc3ccccc3c2)[C@H](NC(=O)CCN)[C@H](OC)[C@@H]1O` [Compound 40], in that order: “− (% SST5 radio-ligand binding displaced at cone (μM) −<40%)”, “++ (% SST5 radio-ligand binding displaced at conc (μM) >60%)” and “++ (% SST5 radio-ligand binding displaced at conc (μM) >60%)”.
